Assay results reported in the supplement of paper PMC11451515.

System: P12-Ichikawa
Experiment: cell viability relative to DMSO control; higher = less cytotoxic
Conditions: 48 h
Method in brief: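 Library compounds in DMSO were pin-dosed into 1536-well plates (5 μl) holding NOMO1 or SEM (500 cells/well) or P12-Ichikawa (1000 cells/well) leukemia cells, across an 11-point threefold series of 47 μM to 0.79 nM. Each cell line had been adapted for at least four passages in each medium. CellTiter-Glo One luminescence was read after 48 h at 37°C. Viability is the per-plate percentage relative to DMSO wells, with cell-free wells as background.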

[1] = HPLM + 10% dialyzed FBS, 0.000781 µM
[2] = HPLM + 10% dialyzed FBS, 0.00234 µM
[3] = HPLM + 10% dialyzed FBS, 0.00702 µM
[4] = HPLM + 10% dialyzed FBS, 0.0211 µM
[5] = HPLM + 10% dialyzed FBS, 0.0632 µM
[6] = HPLM + 10% dialyzed FBS, 0.19 µM
[7] = HPLM + 10% dialyzed FBS, 0.569 µM
[8] = HPLM + 10% dialyzed FBS, 1.71 µM
[9] = HPLM + 10% dialyzed FBS, 5.12 µM
[10] = HPLM + 10% dialyzed FBS, 15.4 µM
[11] = HPLM + 10% dialyzed FBS, 46.1 µM
[12] = RPMI 5 mM glucose + 10% FBS, 0.000781 µM
[13] = RPMI 5 mM glucose + 10% FBS, 0.00234 µM
[14] = RPMI 5 mM glucose + 10% FBS, 0.00702 µM
[15] = RPMI 5 mM glucose + 10% FBS, 0.0211 µM
[16] = RPMI 5 mM glucose + 10% FBS, 0.0632 µM
[17] = RPMI 5 mM glucose + 10% FBS, 0.19 µM
[18] = RPMI 5 mM glucose + 10% FBS, 0.569 µM
[19] = RPMI 5 mM glucose + 10% FBS, 1.71 µM
[20] = RPMI 5 mM glucose + 10% FBS, 5.12 µM
[21] = RPMI 5 mM glucose + 10% FBS, 15.4 µM
[22] = RPMI 5 mM glucose + 10% FBS, 46.1 µM
[23] = RPMI 5 mM glucose + 10% dialyzed FBS, 0.000781 µM
[24] = RPMI 5 mM glucose + 10% dialyzed FBS, 0.00234 µM
[25] = RPMI 5 mM glucose + 10% dialyzed FBS, 0.00702 µM
[26] = RPMI 5 mM glucose + 10% dialyzed FBS, 0.0211 µM
[27] = RPMI 5 mM glucose + 10% dialyzed FBS, 0.0632 µM
[28] = RPMI 5 mM glucose + 10% dialyzed FBS, 0.19 µM
[29] = RPMI 5 mM glucose + 10% dialyzed FBS, 0.569 µM
[30] = RPMI 5 mM glucose + 10% dialyzed FBS, 1.71 µM
[31] = RPMI 5 mM glucose + 10% dialyzed FBS, 5.12 µM
[32] = RPMI 5 mM glucose + 10% dialyzed FBS, 15.4 µM
[33] = RPMI 5 mM glucose + 10% dialyzed FBS, 46.1 µM

Compound	cell viability [1] [%]	cell viability [2] [%]	cell viability [3] [%]	cell viability [4] [%]	cell viability [5] [%]	cell viability [6] [%]	cell viability [7] [%]	cell viability [8] [%]	cell viability [9] [%]	cell viability [10] [%]	cell viability [11] [%]	cell viability [12] [%]	cell viability [13] [%]	cell viability [14] [%]	cell viability [15] [%]	cell viability [16] [%]	cell viability [17] [%]	cell viability [18] [%]	cell viability [19] [%]	cell viability [20] [%]	cell viability [21] [%]	cell viability [22] [%]	cell viability [23] [%]	cell viability [24] [%]	cell viability [25] [%]	cell viability [26] [%]	cell viability [27] [%]	cell viability [28] [%]	cell viability [29] [%]	cell viability [30] [%]	cell viability [31] [%]	cell viability [32] [%]	cell viability [33] [%]
CNC(=O)[C@H](Cc1ccccc1)NC(=O)[C@H](CC(C)C)[C@H](CSc1cccs1)C(=O)NO	86.3	86.4	86.3	98.3	87.4	95.1	89.7	82.9	81.9	73.8	66.8	83.3	87.2	78.9	87	78	82.8	88.1	82.9	71	59.2	52.6	85.3	89.7	82.2	88.3	84.3	91	90.1	79.5	72.5	63.5	53
Cc1cc(O)c2c3c4c(cc(O)c13)C(C)(C)C(=O)c1c(O)cc(O)c(c1-4)C2=O	104	108	111	107	111	106	113	107	106	105	39	107	106	109	99.8	114	107	115	109	110	97.2	42.2	103	112	117	109	107	101	111	104	105	93.2	35.2
CC1(C)[C@@H](O[C@H]2O[C@H](C(=O)O)[C@@H](O)[C@H](O)[C@H]2O[C@@H]2O[C@H](C(=O)O)[C@@H](O)[C@H](O)[C@H]2O)CC[C@]2(C)[C@H]3C(=O)C=C4[C@@H]5C[C@@](C)(C(=O)O)CC[C@]5(C)CC[C@@]4(C)[C@]3(C)CC[C@@H]12	112	130	118	132	128	131	136	128	123	128	135																						
Cc1ccc(NC(=O)C2(c3ccc4c(c3)OC(F)(F)O4)CC2)nc1-c1cccc(C(=O)O)c1	101	111	101	108	93.4	58.4	29.4	19.5	17.2	10.9	6.66	106	98.6	95.5	101	85.3	42.2	18.7	16.1	11.1	9.88	6.85	102	103	97	96.1	95.4	44.5	30.4	20.8	9.02	8.13	6.13
COc1cc(N2CCC(O)CC2)ccc1Nc1cc(Nc2ccccc2[S+](=O)([O-])C(C)C)c2cc[nH]c2n1	91.6	88.2	86	91.3	93	85.3	78.4	85.1	84.4	84.4	80.2	78.4	85.5	85.2	85.4	87.2	88	81.3	81.8	80.8	77.4	66.9	85	85.2	86.5	83.7	87.1	80.7	85	83.7	85.6	78.4	77.9
C[C@H](NC(=O)C(=O)Nc1ccccc1C(C)(C)C)C(=O)N[C@@H](CC(=O)O)C(=O)COc1c(F)c(F)cc(F)c1F	107	120	122	130	125	124	130	129	120	88.7	4.89	101	131	124	120	133	128	126	122	121	56.4	4.69	102	111	112	127	124	130	128	126	107	58.9	4.53
CCC(=O)O[C@@]1([C@@H](C)C[C@H]2[C@@H]3CCC/4=C/C(=O)/C=C\[C@]4(C)[C@@]3(F)[C@@H](O)C[C@]12C)C(=O)CCl	118	121	101	86.8	79.2	73	76.9	76.9	70.2	68.6	55												134	107	83.8	79.9	59.9	61.3	56.2	57	54.1	51.3	38.5
Nc1nc(-c2nn(Cc3ccccc3F)c3ncccc23)nc(N)c1N1CCOCC1	92.3	100	105	111	111	112	110	109	109	107	95.9	93.1	97.9	98.8	116	107	112	110	109	107	111	107	86.1	101	100	108	104	92.1	107	101	104	103	87.3
